Results taken from patent US9309242B2, “Substituted pyrido[2,3-b]pyrazines as FGFR kinase inhibitors” (priority 2011, dated 2016).

What was measured:
[1] = target: FGFR4 (h) (Homo sapiens, UniProt P22455); assay: FGFR4 (enzymatic assay), TR-FRET; format: biochemical; conditions: FGFR 4 pIC50, enzymatic assay
[2] = target: Ba/F3-FGFR4-transfected cells (Homo sapiens, UniProt P22455); assay: Ba/F3-FGFR4 cellular proliferation assay, Alamar Blue; format: cell-based
Method in brief: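 Fluorescence read-out (ex. 540 nm, em. 590 nm) of resazurin-based Alamar Blue after 4 h, following 24 h compound exposure of Ba/F3-FGFR4-transfected cells (20000/well) at 37° C, 5% CO2.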

[3] = target: T1, Ba/F3-FGFR1-transfected cells (Homo sapiens, UniProt P11362); assay: Ba/F3-FGFR1 (minus IL3) cellular proliferation assay, Alamar Blue; format: cell-based
T1 construct: BAF3-FGFR1 (MIN IL3) pIC50; other: minus IL3
T1 sequence (P11362 whole entry, change not shown): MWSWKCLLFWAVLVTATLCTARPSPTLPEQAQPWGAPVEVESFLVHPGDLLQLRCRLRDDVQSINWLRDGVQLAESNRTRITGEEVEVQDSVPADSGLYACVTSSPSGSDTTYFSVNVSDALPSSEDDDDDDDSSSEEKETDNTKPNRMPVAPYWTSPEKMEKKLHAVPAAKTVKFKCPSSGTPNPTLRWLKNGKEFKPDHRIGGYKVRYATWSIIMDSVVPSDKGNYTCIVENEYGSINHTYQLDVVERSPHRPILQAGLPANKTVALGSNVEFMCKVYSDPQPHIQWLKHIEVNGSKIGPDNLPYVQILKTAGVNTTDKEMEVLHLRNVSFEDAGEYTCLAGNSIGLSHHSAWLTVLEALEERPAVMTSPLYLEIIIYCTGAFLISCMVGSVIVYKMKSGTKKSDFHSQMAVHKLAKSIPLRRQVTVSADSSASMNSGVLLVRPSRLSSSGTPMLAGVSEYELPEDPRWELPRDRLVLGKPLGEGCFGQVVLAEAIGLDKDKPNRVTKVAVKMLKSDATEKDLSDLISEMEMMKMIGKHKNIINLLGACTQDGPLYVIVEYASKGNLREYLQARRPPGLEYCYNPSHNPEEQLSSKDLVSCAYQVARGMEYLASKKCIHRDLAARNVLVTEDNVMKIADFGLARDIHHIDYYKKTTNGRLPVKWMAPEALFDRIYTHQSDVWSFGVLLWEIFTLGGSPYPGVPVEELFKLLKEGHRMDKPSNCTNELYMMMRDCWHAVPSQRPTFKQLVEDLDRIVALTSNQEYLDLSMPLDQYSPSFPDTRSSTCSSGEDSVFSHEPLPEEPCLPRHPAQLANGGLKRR
Method in brief: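 Compound is dispensed first, then FGFR1-transfected Ba/F3 cells are added at 20000 per well in phenol red-free RPMI-1640 containing 10% FBS. After 24 h at 37 °C, Alamar Blue is added for 4 h and fluorescence is measured at 540/590 nm.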

[4] = test system: Ba/F3-FGFR3-transfected cells; assay: Ba/F3-FGFR3 (plus IL3) cellular proliferation assay, counterscreen with 10 ng/ml murine IL3; format: cell-based; conditions: plus IL3 (10 ng/ml murine IL3, counterscreen); read-out: BAF3-FGFR3 (PLUS IL3) pIC50 (converted)
Method in brief: (§1)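 Compound dilutions were dispensed first, then 20000 FGFR3-transfected Ba/F3 cells per well in serum-containing RPMI-1640 were added. After 24 h incubation at 37° C, Alamar Blue was applied for 4 h before relative fluorescence units were recorded. In the minus-IL3 format cells grow without cytokine; the other format contains 10 ng/ml murine IL3.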

[5] = target: KDR (h) (Homo sapiens, UniProt P35968); assay: KDR (VEGFR2) (enzymatic assay), TR-FRET; format: biochemical; conditions: read-out: VEGFR 2 (KDR) pIC50 (converted)
Sequence of KDR (h) (P35968 20-1356): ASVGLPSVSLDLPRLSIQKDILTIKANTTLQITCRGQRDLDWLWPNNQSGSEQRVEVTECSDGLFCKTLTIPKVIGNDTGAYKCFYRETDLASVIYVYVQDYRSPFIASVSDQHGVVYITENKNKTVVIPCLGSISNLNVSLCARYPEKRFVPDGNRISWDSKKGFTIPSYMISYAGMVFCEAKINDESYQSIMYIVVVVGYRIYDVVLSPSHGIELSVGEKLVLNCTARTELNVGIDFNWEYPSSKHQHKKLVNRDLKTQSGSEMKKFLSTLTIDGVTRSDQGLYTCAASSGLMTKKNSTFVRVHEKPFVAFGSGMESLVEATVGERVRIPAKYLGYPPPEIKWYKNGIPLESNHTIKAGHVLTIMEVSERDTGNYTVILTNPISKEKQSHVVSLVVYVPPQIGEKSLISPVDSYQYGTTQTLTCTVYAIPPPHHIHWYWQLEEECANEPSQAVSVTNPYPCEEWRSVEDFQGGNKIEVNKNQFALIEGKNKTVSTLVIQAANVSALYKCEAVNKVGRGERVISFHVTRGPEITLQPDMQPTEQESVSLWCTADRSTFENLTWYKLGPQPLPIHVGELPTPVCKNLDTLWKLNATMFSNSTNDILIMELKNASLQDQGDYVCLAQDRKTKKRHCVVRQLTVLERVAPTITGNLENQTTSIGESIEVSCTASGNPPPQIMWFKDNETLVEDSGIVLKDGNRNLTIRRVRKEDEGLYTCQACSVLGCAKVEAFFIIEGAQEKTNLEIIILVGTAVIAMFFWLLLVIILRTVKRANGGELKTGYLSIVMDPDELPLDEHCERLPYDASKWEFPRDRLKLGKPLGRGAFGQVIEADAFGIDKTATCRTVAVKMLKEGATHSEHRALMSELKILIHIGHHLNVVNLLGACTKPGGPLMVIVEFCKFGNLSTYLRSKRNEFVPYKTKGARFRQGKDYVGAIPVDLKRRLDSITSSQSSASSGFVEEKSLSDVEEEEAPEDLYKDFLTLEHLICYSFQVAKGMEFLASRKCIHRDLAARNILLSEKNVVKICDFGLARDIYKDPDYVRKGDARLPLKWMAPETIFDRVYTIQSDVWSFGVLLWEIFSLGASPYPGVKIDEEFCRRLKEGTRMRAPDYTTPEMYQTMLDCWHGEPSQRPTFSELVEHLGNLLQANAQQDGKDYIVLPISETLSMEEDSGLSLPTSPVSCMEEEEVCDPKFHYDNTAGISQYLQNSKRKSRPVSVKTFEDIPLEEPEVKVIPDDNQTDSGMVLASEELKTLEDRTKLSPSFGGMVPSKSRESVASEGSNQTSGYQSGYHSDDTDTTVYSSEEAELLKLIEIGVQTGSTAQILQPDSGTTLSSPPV
Method in brief: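 3 μM ATP, 500 nM Btn-Flt3 substrate, 150 ng/ml kinase; HEPES pH 7.5 with MnCl2, DTT, vanadate, Triton; 1% DMSO. 120 min RT. Stop: EDTA + Eu-anti-P-Tyr + SA-XL-665, 60 min RT. Readout TR-FRET ex340/em620, 655 nm, RFU.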

[6] = target: T2, Ba/F3-FGFR3-transfected cells (Homo sapiens, UniProt P22607); assay: Ba/F3-FGFR3 (minus IL3) cellular proliferation assay, Alamar Blue; format: cell-based
T2 construct: BAF3-FGFR3 (MIN IL3) pIC50; other: minus IL3
T2 sequence (P22607 whole entry, change not shown): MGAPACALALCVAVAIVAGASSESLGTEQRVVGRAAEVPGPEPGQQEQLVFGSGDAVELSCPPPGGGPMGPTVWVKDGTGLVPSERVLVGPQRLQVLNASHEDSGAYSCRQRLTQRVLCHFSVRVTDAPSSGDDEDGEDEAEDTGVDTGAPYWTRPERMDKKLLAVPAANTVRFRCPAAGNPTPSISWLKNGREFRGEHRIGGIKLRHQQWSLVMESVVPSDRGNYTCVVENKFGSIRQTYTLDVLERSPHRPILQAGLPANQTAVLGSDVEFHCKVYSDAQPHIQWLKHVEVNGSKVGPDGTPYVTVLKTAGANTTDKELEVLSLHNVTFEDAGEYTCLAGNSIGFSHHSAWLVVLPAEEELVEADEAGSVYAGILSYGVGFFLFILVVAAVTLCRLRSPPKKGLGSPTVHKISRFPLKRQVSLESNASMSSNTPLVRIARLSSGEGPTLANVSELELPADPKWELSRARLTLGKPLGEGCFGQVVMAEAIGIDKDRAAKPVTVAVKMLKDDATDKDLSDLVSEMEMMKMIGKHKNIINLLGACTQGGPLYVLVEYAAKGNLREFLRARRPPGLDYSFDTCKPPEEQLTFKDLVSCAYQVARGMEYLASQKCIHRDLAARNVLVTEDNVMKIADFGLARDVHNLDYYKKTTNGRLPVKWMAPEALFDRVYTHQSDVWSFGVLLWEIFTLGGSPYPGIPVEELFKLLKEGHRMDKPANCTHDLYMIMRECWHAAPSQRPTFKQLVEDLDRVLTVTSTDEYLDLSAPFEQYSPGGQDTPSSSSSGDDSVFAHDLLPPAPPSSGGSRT
Method in brief: as §1

[7] = test system: Ba/F3-FGFR1-transfected cells; assay: Ba/F3-FGFR1 (plus IL3) cellular proliferation assay, counterscreen with 10 ng/ml murine IL3; format: cell-based; conditions: plus IL3 (10 ng/ml murine IL3, counterscreen); read-out: BAF3-FGFR1 (PLUS IL3) pIC50 (converted)
Method in brief: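 Proliferation read-out: resazurin-based Alamar Blue fluorescence (540/590 nm) after 4 h, following 24 h compound treatment of 20000 Ba/F3-FGFR1 cells per well in 10% FBS RPMI at 37° C. IL3 counterscreen used the same protocol plus 10 ng/ml murine IL3.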

[8] = target: T3, Ba/F3-KDR-transfected cells (Homo sapiens, UniProt P35968); assay: Ba/F3-KDR (minus IL3) cellular proliferation assay, Alamar Blue; format: cell-based
T3 construct: BAF3-KDR (MIN IL3) pIC50; other: minus IL3
Method in brief: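 Read-out: resazurin-based Alamar Blue fluorescence (ex. 540, em. 590 nm) after 4 h. Before that, cells were incubated with compound for 24 h at 37° C. The counterscreen ran identically but with IL3 supplemented.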

[9] = target: FGFR1 (h) (Homo sapiens, UniProt P11362); assay: FGFR1 (enzymatic assay), TR-FRET; format: biochemical; conditions: read-out: FGFR 1 pIC50 (converted)
Sequence of FGFR1 (h) (P11362 22-822): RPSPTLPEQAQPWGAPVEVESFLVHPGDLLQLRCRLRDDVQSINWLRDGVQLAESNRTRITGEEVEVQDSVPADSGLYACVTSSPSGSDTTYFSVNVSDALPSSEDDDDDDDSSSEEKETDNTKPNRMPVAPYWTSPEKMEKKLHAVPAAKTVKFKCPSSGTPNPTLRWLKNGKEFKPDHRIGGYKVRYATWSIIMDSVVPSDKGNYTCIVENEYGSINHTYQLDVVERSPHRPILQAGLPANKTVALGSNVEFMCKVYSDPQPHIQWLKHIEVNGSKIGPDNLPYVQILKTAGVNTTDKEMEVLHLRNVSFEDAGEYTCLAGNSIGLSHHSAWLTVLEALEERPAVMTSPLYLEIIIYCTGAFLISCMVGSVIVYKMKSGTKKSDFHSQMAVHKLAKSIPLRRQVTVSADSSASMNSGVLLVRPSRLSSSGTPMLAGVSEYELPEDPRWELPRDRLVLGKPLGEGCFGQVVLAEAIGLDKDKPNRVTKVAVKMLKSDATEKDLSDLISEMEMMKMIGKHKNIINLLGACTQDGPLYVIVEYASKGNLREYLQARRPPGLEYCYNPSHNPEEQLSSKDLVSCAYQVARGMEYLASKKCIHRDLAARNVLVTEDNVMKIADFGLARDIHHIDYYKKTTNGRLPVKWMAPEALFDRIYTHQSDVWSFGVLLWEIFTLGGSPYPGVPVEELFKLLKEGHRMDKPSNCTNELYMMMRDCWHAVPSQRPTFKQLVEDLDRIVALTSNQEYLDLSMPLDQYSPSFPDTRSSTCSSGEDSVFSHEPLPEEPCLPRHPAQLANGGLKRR

Sequence of Ba/F3-FGFR4-transfected cells (P22455 whole entry, change not shown): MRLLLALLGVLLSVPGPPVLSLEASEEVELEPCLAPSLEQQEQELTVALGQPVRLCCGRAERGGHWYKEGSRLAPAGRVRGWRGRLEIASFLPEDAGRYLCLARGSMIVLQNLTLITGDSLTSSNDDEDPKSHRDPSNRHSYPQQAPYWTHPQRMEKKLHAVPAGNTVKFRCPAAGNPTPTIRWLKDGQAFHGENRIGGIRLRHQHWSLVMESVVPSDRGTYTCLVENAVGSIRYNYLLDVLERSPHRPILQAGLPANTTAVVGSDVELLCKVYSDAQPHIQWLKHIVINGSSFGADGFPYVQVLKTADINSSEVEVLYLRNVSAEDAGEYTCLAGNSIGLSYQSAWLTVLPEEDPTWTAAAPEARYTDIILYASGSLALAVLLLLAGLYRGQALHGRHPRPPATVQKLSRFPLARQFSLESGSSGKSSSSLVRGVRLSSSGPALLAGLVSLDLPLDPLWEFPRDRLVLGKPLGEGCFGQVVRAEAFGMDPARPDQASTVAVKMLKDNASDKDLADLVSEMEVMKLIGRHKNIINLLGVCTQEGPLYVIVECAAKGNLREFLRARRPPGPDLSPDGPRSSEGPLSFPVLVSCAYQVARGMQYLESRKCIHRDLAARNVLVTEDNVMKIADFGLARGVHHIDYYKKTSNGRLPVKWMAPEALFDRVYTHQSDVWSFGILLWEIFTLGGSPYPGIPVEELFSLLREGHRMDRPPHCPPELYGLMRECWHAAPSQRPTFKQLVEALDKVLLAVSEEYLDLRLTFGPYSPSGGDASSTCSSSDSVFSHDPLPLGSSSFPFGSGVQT

| SMILES | IC50 [1] | BAF3-FGFR4 pIC50 [2] | BAF3-FGFR1 (MIN IL3) pIC50 [3] | IC50 [4] | IC50 [5] | BAF3-FGFR3 (MIN IL3) pIC50 [6] | IC50 [7] | BAF3-KDR (MIN IL3) pIC50 [8] | IC50 [9] |
| --- | --- | --- | --- | --- | --- | --- | --- | --- | --- |
| COc1ccc(Cl)c(N(CC2CCC(=O)N2)c2ccc3ncc(-c4cnn(C)c4)nc3n2)c1Cl (single isomer, unassigned) [Compound 90] | ~912 nM | <5 | 5.04 | > 10000 nM | > 1000 nM | 5.19 | > 10000 nM | <5 | 166 nM |
| COc1cc(/N=c2\ccc3ncc(-c4cnn(C)c4)nc3n2Cc2c(C)noc2C)c(F)c(OC)c1 [Compound 179] | 3.47 nM | <5.52 | <5.52 | > 3020 nM | 12.3 nM | <5.52 | > 3020 nM | <5.52 | 2.95 nM |
| COc1cc(/N=c2\ccc3ncc(-c4cnn(C)c4)nc3n2CCN2CCOCC2)c(F)c(OC)c1 [Compound 148] | 1.62 nM | 7.21 | 7.58 | > 10000 nM | 5.01 nM | 7.21 | > 10000 nM | 6.26 | 1.7 nM |
| COc1cc(OC)c(F)c(N(Cc2nc(CO)c[nH]2)c2ccc3ncc(-c4cnn(C)c4)nc3n2)c1 [Compound 232] | 1.86 nM | 6.96 | 7.45 | > 10000 nM | 22.4 nM | 7.81 | > 10000 nM | 5.83 | 0.813 nM |
| COc1cc(OC)cc(N(CCO)c2ccc3ncc(-c4ccncc4)nc3n2)c1 [Compound 213] | 25.1 nM | 6.15 | 6.57 | > 10000 nM | 245 nM | ~6.7 | > 10000 nM | 5.01 | 4.27 nM |
| COc1cc(OC)c(F)c(/N=c2\ccc3ncc(-c4cnn(C)c4)nc3n2CC2CCOC2)c1F (stereo not drawn) [Compound 154] | 0.776 nM | ~7.6 | 7.71 | > 10000 nM | 1.62 nM | 7.59 | > 10000 nM | 6.43 | 0.661 nM |
| COc1cc(OC)c(F)c(N(CC#N)c2ccc3ncc(-c4cnn(C)c4)nc3n2)c1F [Compound 173] | 0.724 nM | 7.61 | 8.00 | > 10000 nM | 8.91 nM | ~8.04 | > 10000 nM | 5.78 | ~0.977 nM |
| COc1cc(OC)c(F)c(N(Cc2nccn2CCO)c2ccc3ncc(-c4cnn(C)c4)nc3n2)c1 [Compound 145] | 10.5 nM | 6.61 | 7.26 | > 10000 nM | 25.7 nM | 7.04 | > 10000 nM | 5.63 | 3.24 nM |
| COc1cc(OC)cc(N(Cc2ncn(CCO)n2)c2ccc3ncc(-c4cnn(C)c4)nc3n2)c1 [Compound 205] | 47.9 nM | 5.62 | 6.31 | > 10000 nM | 38.9 nM | 6.20 | > 10000 nM | 5.45 | 3.89 nM |
| COc1cc(OC)cc(N(CC2COC2)c2ccc3ncc(-c4cnn(C)c4)nc3n2)c1 [Compound 142] | 30.2 nM | 5.10 | 5.49 | > 10000 nM | 74.1 nM | 5.30 | > 10000 nM | <5 | 16.2 nM |
